Assay results: PubChem BioAssay (NCI)
Values joined by “and” are separate entries in the source; they are usually repeats but may differ in a detail not shown here. Equal entries are not always repeated.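 1) Cells in 96-well plates. 2) Compound, 48 h, 5 concentrations. 3) Linear interpolation between surrounding doses. 4) Unreached endpoint = highest concentration. Here, GI50 denotes the concentration required for 50% inhibition of growth. TGI: total growth inhibition.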

What was measured:
Test in all cases: inhibition of tumour cell growth, NCI panel, 48 h
NCI-H522 lung = system: NCI-H522 lung
SF-268 CNS = system: SF-268 CNS
NCI-H460 lung = system: NCI-H460 lung
LOX IMVI melanoma = system: LOX IMVI melanoma
SN12C renal = system: SN12C renal
CAKI-1 renal = system: CAKI-1 renal
K-562 leukemia = system: K-562 leukemia
COLO 205 colon = system: COLO 205 colon
BT-549 breast = system: BT-549 breast
MDA-MB-435 = system: MDA-MB-435

Compound	TGI (NCI-H522 lung) [µM]	TGI (SF-268 CNS) [µM]	TGI (NCI-H460 lung)	TGI (LOX IMVI melanoma) [µM]	TGI (SN12C renal) [µM]	TGI (CAKI-1 renal) [µM]	TGI (K-562 leukemia) [µM]	GI50 (NCI-H522 lung) [nM]	GI50 (SF-268 CNS) [nM]	GI50 (NCI-H460 lung) [nM]	GI50 (LOX IMVI melanoma) [nM]	GI50 (COLO 205 colon) [nM]	TGI (COLO 205 colon) [µM]	GI50 (SN12C renal) [nM]	GI50 (BT-549 breast) [nM]	TGI (BT-549 breast) [µM]	GI50 (CAKI-1 renal) [nM]	GI50 (K-562 leukemia) [nM]	TGI (MDA-MB-435)
CC(Sc1ccccc1)C(CO)(CO)[N+](=O)[O-] (configuration not stated)	26.3	46.5	50.7 µM	28.2	31.2	33.1	34.4	–	–	–	–	–	–	–	–	–	–	–	–
O=C1c2cc3c(cc2-c2c1c1ccc(Cl)cc1c(=O)n2C[C@H](O)[C@@H](O)[C@H](O)CO)OCO3	0.172	> 100	0.153 µM	0.103	> 100	0.4	> 100	11.7	15.5	28.4	14.5	80	0.895	47.3	30.1	1.36	32.5	34.2	–
O=C(O)C(CSC(c1ccccc1)(c1ccccc1)c1ccccc1)N=Cc1cccs1 (configuration not stated)	> 20.1	> 40.2	> 48.9 µM	> 59.8	98.1	> 54.7	> 100	–	–	–	–	–	6.49	–	–	> 27.5	–	–	1.21 µM
O=S1(=O)OC(c2ccc(O)cc2)(c2ccc(O)cc2)c2ccccc21	> 100	> 100	> 100 µM	> 100	> 100	> 100	> 100	–	–	–	–	–	> 100	–	–	> 100	–	–	> 100 µM
N#CC(c1ccccc1)N1CCCN(C(C#N)c2ccccc2)C1c1ccccc1O (configuration not stated)	> 100	> 100	> 100 µM	> 100	> 100	> 100	> 100	–	–	–	–	–	> 100	–	–	> 100	–	–	> 100 µM
Cc1cc(O)c(C(C)C)cc1CN1CCCCC1	> 100	> 100	> 100 µM	> 100	> 100	> 100	> 100	–	–	–	–	–	> 100	–	–	> 100	–	–	> 100 µM
Clc1ccc(Nc2nc(Cl)c3[nH]cnc3n2)cc1Cl	56.7	91.3	62.7 µM	34.1	> 100	16.6	> 100	–	–	–	–	–	37.9	–	–	79.1	–	–	80.3 µM
CN(C)CCn1c(=O)c2ccc3c4c(nn3CCN(C)C)c3cc(N)ccc3n(c1=O)c24	0.27	0.221	0.0904 µM	0.127	0.069	1.47	16.7	–	–	–	–	–	0.199	–	–	0.78	–	–	0.0654 µM
O=S(=O)(O)c1cccc2c(N=Nc3c(O)ccc4ccccc34)cccc12	> 100	> 100	–	> 100	> 100	> 100	> 100	–	–	–	–	–	> 100	–	–	> 100	–	–	> 100 µM
N[C@H]1CCN(c2c(F)cc3c(=O)c(C(=O)O)cn4c3c2Oc2cc3c(ccc5ccccc53)cc2-4)C1	> 100	–	5.28 µM	> 100	> 100	> 100	> 100	–	–	–	–	–	9.28	–	–	> 100	–	–	> 100 µM
CC[C@@]1(O)C(=O)OCc2c1cc1n(c2=O)Cc2c-1nc1ccc(O)cc1c2CC[Si](C)(C)C	0.299	–	0.00445 µM and 0.0117 µM	0.114	–	–	–	–	–	–	–	–	1.16	–	–	4.09	–	–	0.495 µM and 0.887 µM
COc1ccc(/C=C(\C#N)c2nc(N)nc(N3N=C(C)CC3(C)C)n2)c(O)c1	38.9	38.3	38.2 µM	–	> 100	38.1	84.7	–	–	–	–	–	30.9	–	–	> 100	–	–	33.1 µM
CC(=O)N(C)c1ccc2c(ccc[n+]2[O-])c1[N+](=O)[O-]	–	> 100	> 100 µM	> 100	> 100	> 100	> 100	–	–	–	–	–	> 100	–	–	–	–	–	–
CC1(C)CCC2(C(=O)OC3OC(CO)C(O)C(O)C3O)CCC3(C)C(=CCC4C5(C)CCC(OC6OC(CO)C(O)C(O)C6O)C(C)(C)C5CCC43C)C2C1 (configuration not stated)	12.9	21.8	> 25 µM	8.51	> 25	> 25	> 25	–	–	–	–	–	> 25	–	–	> 25	–	–	> 25 µM
C[C@]12CCC(=O)C=C1CC[C@@H]1[C@@H]2[C@@H](O)C[C@@]2(C)[C@H]1CC[C@]2(O)C(=O)CO	> 100	> 100	> 100 µM	> 100	> 100	> 100	> 100	–	–	–	–	–	> 100	–	–	> 100	–	–	> 100 µM
Nc1nc(N)c2c(n1)NC(c1ccccc1)CC(/C=C/c1ccc(Cl)cc1)=N2 (configuration not stated)	5.32	44.1	18 µM	13.4	23.6	26.4	9.61	–	–	–	–	–	7.5	–	–	37.9	–	–	21.1 µM
Nc1ccccc1N/C(=C\C(=O)C(Cl)(Cl)Cl)c1ccccc1	35	70.4	69.4 µM	35.6	45.6	> 100	> 100	–	–	–	–	–	98.1	–	–	91.6	–	–	> 100 µM

Compound	TGI (NCI-H522 lung) [µM]	TGI (SF-268 CNS) [µM]	TGI (NCI-H460 lung)	TGI (LOX IMVI melanoma) [µM]	TGI (SN12C renal) [µM]	TGI (CAKI-1 renal) [µM]	TGI (K-562 leukemia) [µM]	GI50 (NCI-H522 lung) [nM]	GI50 (SF-268 CNS) [nM]	GI50 (NCI-H460 lung) [nM]	GI50 (LOX IMVI melanoma) [nM]	GI50 (COLO 205 colon) [nM]	TGI (COLO 205 colon) [µM]	GI50 (SN12C renal) [nM]	GI50 (BT-549 breast) [nM]	TGI (BT-549 breast) [µM]	GI50 (CAKI-1 renal) [nM]	GI50 (K-562 leukemia) [nM]	TGI (MDA-MB-435)
CCOC(=O)C1CCn2c(nc3c2c(=O)n(C)c(=O)n3C)S1 (configuration not stated)	> 100	> 100	> 100 µM	> 100	> 100	> 100	> 100	–	–	–	–	–	–	–	–	–	–	–	–
O=[N+]([O-])c1ccc2c(c1)c(N=NC(=S)NC1CCCCC1)c(O)n2CN1CCOCC1	30.3	19.2	13.5 µM	19.3	19.7	14.3	> 100	–	–	–	–	–	23.4	–	–	20.8	–	–	20 µM
O=C(CCN1CC2CCC(CC2)C1)c1cccs1	36.3	44.3	37.5 µM	27.7	37.6	34.5	44	–	–	–	–	–	34.7	–	–	39	–	–	42.3 µM
CCC(C)C1NC(=O)C2CCCN2C(=O)C(CC2CO2)OC(=O)CCNC(=O)C(C)N(C)C(=O)C(C(C)C)N(C)C1=O (configuration not stated)	> 100	> 100	> 100 µM	0.118	> 100	> 100	> 100	–	–	–	–	–	47.3	–	–	> 100	–	–	> 100 µM
CN1C2CCC1C(C(O)c1ccccc1[N+](=O)[O-])C(=O)C2 (configuration not stated)	> 100	> 100	> 100 µM	> 100	> 100	> 100	> 100	–	–	–	–	–	> 100	–	–	> 100	–	–	53 µM
C/C(=N\NC(=O)c1cccnc1)c1cccc(/C(C)=N/NC(=O)c2cccnc2)n1	6.76	30.6	34.6 µM	> 100	> 100	–	> 100	1580	–	–	–	4150	> 100	–	–	–	–	3040	–
O=[n+]1c2c(n([O-])c3ccccc31)-c1cccc3cccc-2c13	> 100	> 100	> 100 µM	> 100	> 100	–	> 100	–	–	–	–	–	> 100	–	–	–	–	–	> 100 µM
COC(=O)C1C(C)N1C (configuration not stated)	> 100	–	> 100 µM	> 100	> 100	–	> 100	–	–	–	–	–	> 100	–	–	–	–	–	–
C[C@]12CC[C@@H]3c4ccccc4CC[C@H]3[C@@H]1CC[C@@H]2O	> 100	> 100	> 100 µM	> 100	> 100	–	> 100	–	–	–	–	–	> 100	–	–	–	–	–	–
O=S(=O)(/N=C(\NO)Nc1ccc(Cl)cc1)c1ccc(S(=O)(=O)c2ccccc2)s1	37.7	90.7	29.1 µM	29.3	39.9	91.4	40.3	–	–	–	–	–	34.6	–	–	44.7	–	–	37.3 µM
NCCNc1nc(N2CCCC2)c2nc(Cl)c(NCc3ccccc3)nc2n1	3.31	3.81	3.54 µM	3.06	2.92	15.2	0.182	–	–	–	–	–	3.29	–	–	4.12	–	–	3.19 µM
NNC(=O)c1ccccc1Nc1ccccc1C(=O)NN	> 100	> 100	> 100 µM	> 100	> 100	> 100	> 100	–	–	–	–	–	> 100	–	–	> 100	–	–	> 100 µM
[O-][N+](CCO)(CCO)c1ncnc2nc[nH]c12	> 100	> 100	–	> 100	> 100	> 100	> 100	–	–	–	–	–	> 100	–	–	> 100	–	–	> 100 µM
COC(=O)C1C(O)CCC2CN3CCc4c([nH]c5cccc(OC)c45)C3CC21 (configuration not stated)	> 100	> 100	> 100 µM	> 100	> 100	> 100	> 100	–	–	–	–	–	> 100	–	–	> 100	–	–	> 100 µM
OCCOCn1cc(Cn2ncc3c(SCc4ccccc4)ncnc32)nn1	99.2	> 100	> 100 µM	> 100	> 100	> 100	> 100	–	–	–	–	–	> 100	–	–	> 100	–	–	35.1 µM
COc1c2c(cc3c1C(O)N1CC[C@]34[C@H]3O[C@H]3[C@H](OC)C[C@@H]14)OCO2 (some centres not stated)	96.7	> 100	> 100 µM	> 100	> 100	> 100	> 100	–	–	–	–	–	> 100	–	–	> 100	–	–	> 100 µM
CC(=O)OC1CC(O)CC2=CCC3C4CCC(C(C)(O)C(O)CC5COC(=O)C5C)C4(C)CCC3C21C (configuration not stated)	> 25	> 25	> 25 µM	> 25	> 25	> 25	> 25	–	–	–	–	–	> 25	–	–	> 25	–	–	> 25 µM
